Source: US12213980B2, “Application of PDE9A inhibitor in preparation of products having elevated Treg content, drugs for preventing and treating inflammatory bowel disease and health care products” (ZHEJIANG UNIVERSITY, priority 2018, dated 2025)
Where two headings read alike, the source gives them in different places.

Key:
[1] = test system: DC cells in colon and mesenteric lymph nodes; assay: Activation test of intestinal mucosa DC in DSS induced model (flow cytometry); format: in vivo, C57 female mice
Procedure: (§1) C57 female mice were selected and weighed about 20 g. All mice were randomly divided into control group (control group), model group (DSS group), sulfasalazine group (AS group) and low dose group (PF3 group). The middle dose group (PF10 group) and the high dose group (PF30 group), a total of 6 groups, 10 mice in each group.
(§2) The control group was treated with deionized water and the remaining 5 groups were fed with 3% DSS solution.
(§3) During the period, the sulfasalazine group was intragastrically administered at a dose of 0.5 g/kg, and the PF-04447943 low-dose group, the middle-dose group, and the high-dose daily gavage were administered at a dose of 3 mg/kg, 10 mg/kg, and 30 mg/kg, respectively. The body weight, water bottle weight and the record were weighed daily. On the 8th day, the mice were sacrificed by deep anesthesia, and the colon, mesenteric lymph nodes, spleen and anus were taken. The length of the colon was measured and the colon was divided into three sections. The anal part specimens were fixed in formalin and the remaining specimens were stored frozen at −80° C. Isolating the mononuclear cells of colon, mesenteric lymph node and spleen, then staining separately, the distribution of DC cells and Treg cells in colon, mesenteric lymph nodes and spleen were determined by flow cytometry. IL-6, IL-12, TNF-α, IL-17 etc were measured by ELISA. SOD activity and MDA amount in colon tissue were measured, and the effect of PDE9A inhibitor PF-04447943 on mouse model was analyzed.
The colon was digested with collagenase, and the mesenteric lymph nodes were ground and sieved through 100 mesh to prepare single cell suspensions. The cell density was adjusted to […], and the DC cell amount was determined for each sample.
FIG. 5 is a control plot of total DC and mature DC in colon, mesenteric lymphatic cleansing in DSS model mice.

[2] = test system: SOD activity and MDA amount in colon tissue
Procedure: as §1, §2, §3
After the intestinal tissue homogenization, SOD activity and MDA amount in colon tissue were determined by SOD and MDA assay kits.

DSS modeled mice = assay: DSS induced model weight and colon length test; format: in vivo, C57 female mice
DSS mice = assay: DSS-induced mouse model, overall comparison with sulfasalazine; format: in vivo, C57 female mice; settings: high-dose PF-04447943 group (30 mg/kg) vs sulfasalazine at conventional dose (0.5 g/kg)
[3] = test system: TNF-α, IL-17, IL-6, IL-12/IL-23 in colon tissue
Procedure: as §1, §2, §3
After intestinal tissue homogenization, TNF-α, IL-17, IL-6, IL-12/IL-23 in colon tissue were determined by ELISA kit.

[4] = test system: Treg cells in mesenteric lymph node, spleen and colon; assay: Activation test of Treg in DSS induction model (flow cytometry); format: in vivo, C57 female mice
Procedure: The colon was digested with collagenase, and the mesenteric lymph nodes and spleen tissues were ground and sieved through 100 mesh to prepare single cell suspensions. The cell density was adjusted to 10^5 cell/100 μl, and the Treg amount was determined for each sample.
Related studies have shown that T cells, especially Treg cells, play a role in the protection of DSS inflammatory bowel disease model. In order to study the role of Treg in the DSS colitis model, three mesenteric lymph nodes, spleen and colon were evaluated based on trial 4, respectively.

[5] = test system: colonic mucin secretion in DSS model mice; assay: Intestinal mucin secretion test in DSS-induced model; format: in vivo, C57 female mice
Source text: FIG. 3 is a control map of colonic mucin secretion in DSS model mice. It can be obtained from FIG. 3. The DSS group lost epithelial integrity, crypt structure, and goblet cell, company with immune cell infiltration, Smooth muscle cell hypertrophy and reduced secretory glycoprotein when compared with the control group.

[6] = cited from earlier work
[7] = high dose group (30 mg/kg) vs DSS group
[8] = high, medium and low dose groups vs DSS group
[9] = high dose group (30 mg/kg) vs DSS group and control group
[10] = high, medium and low dose groups vs control and DSS groups

Question: With `O=C(O)c1cc(/N=N/c2ccc(S(=O)(=O)Nc3ccccn3)cc2)ccc1O` [sulfasalazine] as the compound, how does the “activated DC cells in colon” value ([1]; sulfasalazine group 0.5 g/kg, compared with PF-04447943 dose groups) read?
Answer: lower than the high dose group

Question: For `C[C@@H]1CN(Cc2ncccn2)C[C@H]1c1nc2c(cnn2C2CCOCC2)c(=O)[nH]1` [PF-04447943], which “DSS-induced intestinal oxidative stress damage” value ([2]; conclusion, dose not stated) is on record?
Answer: significantly inhibit

Question: What about the “MDA amount in colon tissue” value ([2]; drug group vs DSS group) of the same compound?
Answer: lower than that of the DSS group

Question: What about the “MDA amount in colon tissue” value [2, 7] of the same compound?
Answer: statistically different from the DSS group

Question: And the “SOD activity in colon tissue” value [2, 7]?
Answer: improved compared with the DSS group

Question: What about the colon length (DSS modeled mice; PF30 group (30 mg/kg) vs DSS group) of the same compound?
Answer: significant difference

Question: What about the “weight loss and colon shortening in the DSS-induced model” value (DSS modeled mice; conclusion, dose not stated) of the same compound?
Answer: inhibited the weight loss and colon shortening

Question: And the “efficacy in IL-6 secretion, SOD activity, MDA amount, activation of DC and regulation of Treg” value (DSS mice)?
Answer: superior to the conventional drug sulfasalazine at conventional dose

Question: And the “DSS-induced inflammatory factors secreted by the intestinal mucosa” value ([3]; conclusion, dose not stated)?
Answer: significantly inhibits

Question: What about the “IL-6 level in colon tissue” value [3, 7] of the same compound?
Answer: significantly lower than those in the DSS group

Question: And the “IL-12/IL-23 level in colon tissue” value [3, 7]?
Answer: statistically significant compared with the DSS group

Question: And the “IL-17 level in colon tissue” value [3, 7]?
Answer: statistically significant compared with the DSS group

Question: And the “TNF-α level in colon tissue” value [3, 7]?
Answer: statistically significant compared with the DSS group

Question: What about the “IL-6 level in colon tissue” value ([3]; middle dose group (10 mg/kg) vs DSS group) of the same compound?
Answer: significantly lower than those in the DSS group

Question: And the “migration of DC cells from the colon to the mesenteric lymph nodes and DC maturation” value ([1]; conclusion, dose not stated)?
Answer: can inhibit

Question: And the “activated DC cells in mesenteric lymph node (MLN)” value [1, 8]?
Answer: significantly lower than the DSS group

Question: And the “activated DC (mDC) cells in colon” value ([1]; low, medium and high dose groups (3, 10, 30 mg/kg) vs DSS group)?
Answer: significantly lower than the DSS group

Question: What about the “total DC cells in mesenteric lymph node (MLN)” value ([1]; low, medium and high groups (3, 10, 30 mg/kg) vs DSS group) of the same compound?
Answer: significantly lower than the DSS group

Question: What about the “DSS-inhibited Treg activation” value ([4]; conclusion, dose not stated) of the same compound?
Answer: significantly enhanced

Question: And the “differentiation of CD4+Foxp3+ Treg cells” value ([4]; conclusion, dose not stated)?
Answer: significantly induced an increase

Question: And the “CD4+FOXP3+ Treg cells in colon” value [4, 9]?
Answer: significantly higher than that of the DSS group and the control group

Question: And the “CD4+FOXP3+ Treg cells in mesenteric lymph nodes” value [4, 9]?
Answer: significantly higher than that of the DSS group and the control group

Question: What about the “CD4+FOXP3+ Treg cells in spleen” value [4, 9] of the same compound?
Answer: significantly higher than that of the DSS group and the control group

Question: And the “CD4+CD25+ Treg cells in colon” value [4, 8]?
Answer: significantly higher in the colon than in the DSS group

Question: What about the “CD4+CD25+ Treg cells in mesenteric lymph nodes” value [4, 10] of the same compound?
Answer: significantly lower

Question: And the “CD4+CD25+ Treg cells in spleen” value [4, 10]?
Answer: significantly lower

Question: And the “destruction of intestinal mucosal mucin secretion induced by DSS” value ([5]; conclusion, dose not stated)?
Answer: significantly inhibit

Question: And the “loss of epithelial integrity and crypt structure, loss of goblet cells, immune cell infiltration, smooth muscle cell hypertrophy, secretory glycoprotein reduction” value ([5]; low-dose, medium-dose and high-dose groups (3, 10, 30 mg/kg))?
Answer: gradually reversed

Question: And the “protective effect on colonic epithelial cells” value ([5]; with increasing dose of PF-04447943 (3, 10, 30 mg/kg))?
Answer: gradually better

Question: Which “patients with adverse reactions” value ([6]; CD patients) does the source give for “vedolizumab: α4β7 integrin antibody approved by the FDA in 2014 for moderate to severe UC and CD” here?
Answer: 37%

Question: And the “patients with adverse reactions” value ([6]; UC patients)?
Answer: 29%

Question: And the clinical improvement ([6]; patients treated with vedolizumab)?
Answer: significant Clinical improvement
